Key:
human V1a receptor = molecular target: T1, human V1a receptor (Homo sapiens, UniProt P37288); assay: Cellular in vitro assay for determining the vasopressin receptor activity (aequorin luminescence); assay type: cell-based; conditions: CHO cell line transfected with the human V1a receptor; agonist [Arg8]-vasopressin; read-out: IC50 hV1a
T1 construct: expressed in transfected cells; host or cells: CHO K1 (constitutively expressing modified aequorin)
Excerpt: (§1) B-1. Cellular In Vitro Assay for Determining the Vasopressin Receptor Activity
(§2) The identification of agonists and antagonists of the V1a and V2 vasopressin receptors from humans and rats and also the quantification of the activity of the substances described here took place using recombinant cell lines. These cells derive originally from a hamster ovary epithelial cell (Chinese Hamster Ovary, CHO K1, ATCC: American Type Culture Collection, Manassas, Va. 20108, USA). The test cell lines constitutively express a modified form of the calcium-sensitive photoprotein aequorin, which, after reconstitution with the cofactor coelenterazine, emits light when there are increases in the free calcium concentration (Rizzuto R., Simpson A. W., Brini M., Pozzan T.; Nature 358 (1992) 325-327). In addition, the cells are stably transfected with the human or rat V1a or V2 receptors. In the case of the Gs-coupling V2 receptors, the cells are stably transfected with a further gene, which codes for the promiscuous Gα16 protein (Amatruda T. T., Steele D. A., Slepak V. Z., Simon M. I., Proc. Nat. Acad. Sci. USA 88 (1991), 5587-5591), either independently or as a fusion gene. The resulting vasopressin receptor test cells react to stimulation of the recombinantly expressed vasopressin receptors by intracellular release of calcium ions, which can be quantified by the resulting aequorin luminescence using a suitable luminometer (Milligan G., Marshall F., Rees S., Trends in Pharmaco. Sci. 17 (1996) 235-237).
(§3) On the day before the assay, the cells are plated out in culture medium (DMEM, 10% FCS, 2 mM glutamine, 10 mM HEPES) in 384-well microtiter plates and kept in a cell incubator (96% humidity, 5% v/v carbon dioxide, 37° C.). On the day of the assay, the culture medium is replaced by a Tyrode solution (140 mM sodium chloride, 5 mM potassium chloride, 1 mM magnesium chloride, 2 mM calcium chloride, 20 mM glucose, 20 mM HEPES), which additionally contains the cofactor coelenterazine (50 μM), and the microtiter plate is then incubated for a further 3-4 hours. The test substances in various concentrations are placed for 10 to 20 minutes in the wells of the microtiter plate before the agonist [Arg8]-vasopressin is added, and the resulting light signal is measured immediately in the luminometer. The IC50 values are calculated using the GraphPad PRISM computer program (Version 3.02).
(§4) The table below lists representative IC50 values for the compounds of the invention on the cell line transfected with the human V1a or V2 receptor: […]

human V2 receptor = molecular target: T2, human V2 receptor (Homo sapiens, UniProt P30518); assay: as above; assay type: cell-based; conditions: CHO cell line transfected with the human V2 receptor (and Gα16); agonist [Arg8]-vasopressin; read-out: IC50 hV2
T2 construct: expressed in transfected cells; host or cells: CHO K1 (constitutively expressing modified aequorin; co-transfected with promiscuous G-alpha-16)
T2 sequence (P30518 whole entry): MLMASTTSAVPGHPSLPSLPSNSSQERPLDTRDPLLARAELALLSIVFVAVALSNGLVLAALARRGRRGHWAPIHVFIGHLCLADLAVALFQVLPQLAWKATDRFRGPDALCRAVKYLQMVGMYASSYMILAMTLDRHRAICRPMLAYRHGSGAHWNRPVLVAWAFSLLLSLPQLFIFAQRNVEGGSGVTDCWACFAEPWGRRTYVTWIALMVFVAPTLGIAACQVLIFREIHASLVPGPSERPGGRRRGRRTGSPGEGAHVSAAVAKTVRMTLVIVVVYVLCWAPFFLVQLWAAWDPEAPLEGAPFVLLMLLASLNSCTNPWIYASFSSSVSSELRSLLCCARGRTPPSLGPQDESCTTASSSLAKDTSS
Excerpt: as §1, §2, §3, §4

T1 sequence (P37288 whole entry): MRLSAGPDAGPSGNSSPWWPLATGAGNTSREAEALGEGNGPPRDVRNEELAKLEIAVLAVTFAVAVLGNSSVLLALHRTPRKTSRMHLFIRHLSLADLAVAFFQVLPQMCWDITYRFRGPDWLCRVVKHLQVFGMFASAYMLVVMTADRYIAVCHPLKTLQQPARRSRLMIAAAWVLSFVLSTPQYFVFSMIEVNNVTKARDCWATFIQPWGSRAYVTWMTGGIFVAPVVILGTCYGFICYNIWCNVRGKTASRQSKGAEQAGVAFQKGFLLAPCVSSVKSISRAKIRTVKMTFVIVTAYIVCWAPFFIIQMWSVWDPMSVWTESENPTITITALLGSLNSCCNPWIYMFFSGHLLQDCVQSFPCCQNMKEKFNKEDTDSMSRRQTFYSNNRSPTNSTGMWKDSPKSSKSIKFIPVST

IC50 (human V1a receptor): 3.3 nM | IC50 (human V2 receptor): 101 nM
Compound: NC(=O)OCC(NC(=O)Cn1cc(-c2ccc(Cl)cc2)n(CC(O)C(F)(F)F)c1=O)c1ccccc1C(F)(F)F (centres unmarked) [Example 207, 2-({[4-(4-Chlorophenyl)-2-oxo-3-(3,3,3-trifluoro-2-hydroxypropyl)-2,3-dihydro-1H-imidazol-1-yl]acetyl}amino)-2-[2-(trifluoromethyl)phenyl]ethyl carbamate]

— patent publication US8796324B2, “Substituted 2-acetamido-5-aryl-1,2,4-triazolones and use thereof” (Bayer Intellectual Property GmbH, priority 2009, dated 2014)
